# Where “and” joins values, the source holds several entries; their conditions need not be identical. Identical values can stand only once. Like-named read-outs stand apart in the source and are kept apart here.
# Columns and labels:
# FGFR2 = FGFR2 (Homo sapiens, UniProt P21802); experiment: biochemical; assay type: binding; conditions: 10000 nM; read-out: Percent Control
# Source text: (§1) . […] This panel includes several adverse drug reaction receptors such as the serotonin receptor 5HT2b, M1 and M2 muscarinic receptors and adrenergic receptors. […]. page 7:
# (§2) Supplementary Figure 7: Non-GPCR off-target screening for 74. a)-e) Dose-response curves of 74 at […]
# (§3) proliferator-activated receptor gamma (PPARγ, Eurofins item G124). Data in a)-e) and g)-i) represent two technical replicates. Source data are provided as a Source Data file.
# (§4) (1 picture or pasted object on this page, not shown here)
# ROCK2 = ROCK2 (Homo sapiens, UniProt O75116); experiment: biochemical; assay type: binding; conditions: 10000 nM; read-out: Percent Control
# Source text: as §1, §2, §3, §4
# AKT1 = AKT1 (Homo sapiens, UniProt P31749); experiment: biochemical; assay type: binding; conditions: 10000 nM; read-out: Percent Control
# Source text: as §1, §2, §3, §4
# EGFR(L858R) = EGFR(L858R) (Homo sapiens, UniProt P00533, L858R); experiment: biochemical; assay type: binding; conditions: 10000 nM; read-out: Percent Control
# Source text: as §1, §2, §3, §4
# CHEK1 = CHEK1 (Homo sapiens, UniProt O14757); experiment: biochemical; assay type: binding; conditions: 10000 nM; read-out: Percent Control
# Source text: as §1, §2, §3, §4
# ADCK3 = ADCK3 (Homo sapiens, UniProt Q8NI60); experiment: biochemical; assay type: binding; conditions: 10000 nM; read-out: Percent Control
# Source text: as §1, §2, §3, §4
# CDK7 = CDK7 (Homo sapiens, UniProt P50613); experiment: biochemical; assay type: binding; conditions: 10000 nM; read-out: Percent Control
# Source text: as §1, §2, §3, §4
# ACVR1B = ACVR1B (Homo sapiens, UniProt P36896); experiment: biochemical; assay type: binding; conditions: 10000 nM; read-out: Percent Control
# Source text: as §1, §2, §3, §4
# PRKCE = PRKCE (Homo sapiens, UniProt Q02156); experiment: biochemical; assay type: binding; conditions: 10000 nM; read-out: Percent Control
# Source text: as §1, §2, §3, §4
# SRPK3 = SRPK3 (Homo sapiens, UniProt Q9UPE1); experiment: biochemical; assay type: binding; conditions: 10000 nM; read-out: Percent Control
# Source text: as §1, §2, §3, §4
# ZAP70 = ZAP70 (Homo sapiens, UniProt P43403); experiment: biochemical; assay type: binding; conditions: 10000 nM; read-out: Percent Control
# Source text: as §1, §2, §3, §4
# YANK3 = YANK3 (Homo sapiens, UniProt Q86UX6); experiment: biochemical; assay type: binding; conditions: 10000 nM; read-out: Percent Control
# Source text: as §1, §2, §3, §4
# BRAF = BRAF (Homo sapiens, UniProt P15056); experiment: biochemical; assay type: binding; conditions: 10000 nM; read-out: Percent Control
# Source text: as §1, §2, §3, §4
# JNK1 = JNK1 (Homo sapiens, UniProt P45983); experiment: biochemical; assay type: binding; conditions: 10000 nM; read-out: Percent Control
# Source text: as §1, §2, §3, §4
# PDPK1 = PDPK1 (Homo sapiens, UniProt O15530); experiment: biochemical; assay type: binding; conditions: 10000 nM; read-out: Percent Control
# Source text: as §1, §2, §3, §4
# ULK2 = ULK2 (Homo sapiens, UniProt Q8IYT8); experiment: biochemical; assay type: binding; conditions: 10000 nM; read-out: Percent Control
# Source text: as §1, §2, §3, §4
# [1] = target: ABL1(E255K)-phosphorylated (Homo sapiens, UniProt P00519, E255K); experiment: biochemical; assay type: binding; conditions: 10000 nM; read-out: Percent Control
# Source text: as §1, §2, §3, §4
# GSK3B = GSK3B (Homo sapiens, UniProt P49841); experiment: biochemical; assay type: binding; conditions: 10000 nM; read-out: Percent Control
# Source text: as §1, §2, §3, §4
# PIK3CG = PIK3CG (Homo sapiens, UniProt P48736); experiment: biochemical; assay type: binding; conditions: 10000 nM; read-out: Percent Control
# Source text: as §1, §2, §3, §4
# DYRK1B = DYRK1B (Homo sapiens, UniProt Q9Y463); experiment: biochemical; assay type: binding; conditions: 10000 nM; read-out: Percent Control
# Source text: as §1, §2, §3, §4
# PIM1 = PIM1 (Homo sapiens, UniProt P11309); experiment: biochemical; assay type: binding; conditions: 10000 nM; read-out: Percent Control
# Source text: as §1, §2, §3, §4
# TRKA = TRKA (Homo sapiens, UniProt P04629); experiment: biochemical; assay type: binding; conditions: 10000 nM; read-out: Percent Control
# Source text: as §1, §2, §3, §4
# IKK-alpha = IKK-alpha (Homo sapiens, UniProt O15111); experiment: biochemical; assay type: binding; conditions: 10000 nM; read-out: Percent Control
# Source text: as §1, §2, §3, §4
# AKT2 = AKT2 (Homo sapiens, UniProt P31751); experiment: biochemical; assay type: binding; conditions: 10000 nM; read-out: Percent Control
# Source text: as §1, §2, §3, §4
# CDK11 = CDK11 (Homo sapiens, UniProt Q9BWU1); experiment: biochemical; assay type: binding; conditions: 10000 nM; read-out: Percent Control
# Source text: as §1, §2, §3, §4
# SRC = SRC (Homo sapiens, UniProt P12931); experiment: biochemical; assay type: binding; conditions: 10000 nM; read-out: Percent Control
# Source text: as §1, §2, §3, §4
# PIK3CA = PIK3CA (Homo sapiens, UniProt P42336); experiment: biochemical; assay type: binding; conditions: 10000 nM; read-out: Percent Control
# Source text: as §1, §2, §3, §4
# EGFR = EGFR (Homo sapiens, UniProt P00533); experiment: biochemical; assay type: binding; conditions: 10000 nM; read-out: Percent Control
# Source text: as §1, §2, §3, §4
# CDK2 = CDK2 (Homo sapiens, UniProt P24941); experiment: biochemical; assay type: binding; conditions: 10000 nM; read-out: Percent Control
# Source text: as §1, §2, §3, §4
# BTK = BTK (Homo sapiens, UniProt Q06187); experiment: biochemical; assay type: binding; conditions: 10000 nM; read-out: Percent Control
# Source text: as §1, §2, §3, §4
# FAK = FAK (Homo sapiens, UniProt Q05397); experiment: biochemical; assay type: binding; conditions: 10000 nM; read-out: Percent Control
# Source text: as §1, §2, §3, §4
# p38-alpha = p38-alpha (Homo sapiens, UniProt Q16539); experiment: biochemical; assay type: binding; conditions: 10000 nM; read-out: Percent Control
# Source text: as §1, §2, §3, §4
# mice = assay type: in vivo; design: Paw Thickness / Paw thickness AVG 30 / Paw thickness AVG 60 / Paw thickness AVG 120: unit not given here; conditions: for Paw Thickness: duplicate readings; for Paw thickness %BL CARR: used for Figure 3E
# [2] = 30 min, Carrageenan 30 µg, Group Average of 5 mice
# [3] = 30 min, Carrageenan 30 µg, individual mouse
# [4] = 60 min, Carrageenan 30 µg, Group Average of 5 mice
# [5] = 60 min, Carrageenan 30 µg, individual mouse
# [6] = 120 min, Carrageenan 30 µg, Group Average of 5 mice
# [7] = 120 min, Carrageenan 30 µg, individual mouse
# [8] = 180 min, Carrageenan 30 µg, Group Average of 5 mice
# [9] = 180 min, Carrageenan 30 µg, individual mouse
# [10] = 24 hours, Carrageenan 30 µg, Group Average of 5 mice
# [11] = 24 hours, Carrageenan 30 µg, individual mouse
# Sequence of p38-alpha (Q16539 whole entry): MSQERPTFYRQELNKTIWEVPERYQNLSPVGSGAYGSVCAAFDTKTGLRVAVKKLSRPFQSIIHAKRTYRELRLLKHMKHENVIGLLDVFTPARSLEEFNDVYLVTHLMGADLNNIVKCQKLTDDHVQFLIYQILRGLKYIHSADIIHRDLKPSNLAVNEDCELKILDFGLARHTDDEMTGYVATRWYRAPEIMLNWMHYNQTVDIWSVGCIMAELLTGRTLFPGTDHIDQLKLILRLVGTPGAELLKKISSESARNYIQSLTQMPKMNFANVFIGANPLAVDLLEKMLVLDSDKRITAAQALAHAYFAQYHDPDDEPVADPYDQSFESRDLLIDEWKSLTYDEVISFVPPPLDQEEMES
# Sequence of FAK (Q05397 whole entry): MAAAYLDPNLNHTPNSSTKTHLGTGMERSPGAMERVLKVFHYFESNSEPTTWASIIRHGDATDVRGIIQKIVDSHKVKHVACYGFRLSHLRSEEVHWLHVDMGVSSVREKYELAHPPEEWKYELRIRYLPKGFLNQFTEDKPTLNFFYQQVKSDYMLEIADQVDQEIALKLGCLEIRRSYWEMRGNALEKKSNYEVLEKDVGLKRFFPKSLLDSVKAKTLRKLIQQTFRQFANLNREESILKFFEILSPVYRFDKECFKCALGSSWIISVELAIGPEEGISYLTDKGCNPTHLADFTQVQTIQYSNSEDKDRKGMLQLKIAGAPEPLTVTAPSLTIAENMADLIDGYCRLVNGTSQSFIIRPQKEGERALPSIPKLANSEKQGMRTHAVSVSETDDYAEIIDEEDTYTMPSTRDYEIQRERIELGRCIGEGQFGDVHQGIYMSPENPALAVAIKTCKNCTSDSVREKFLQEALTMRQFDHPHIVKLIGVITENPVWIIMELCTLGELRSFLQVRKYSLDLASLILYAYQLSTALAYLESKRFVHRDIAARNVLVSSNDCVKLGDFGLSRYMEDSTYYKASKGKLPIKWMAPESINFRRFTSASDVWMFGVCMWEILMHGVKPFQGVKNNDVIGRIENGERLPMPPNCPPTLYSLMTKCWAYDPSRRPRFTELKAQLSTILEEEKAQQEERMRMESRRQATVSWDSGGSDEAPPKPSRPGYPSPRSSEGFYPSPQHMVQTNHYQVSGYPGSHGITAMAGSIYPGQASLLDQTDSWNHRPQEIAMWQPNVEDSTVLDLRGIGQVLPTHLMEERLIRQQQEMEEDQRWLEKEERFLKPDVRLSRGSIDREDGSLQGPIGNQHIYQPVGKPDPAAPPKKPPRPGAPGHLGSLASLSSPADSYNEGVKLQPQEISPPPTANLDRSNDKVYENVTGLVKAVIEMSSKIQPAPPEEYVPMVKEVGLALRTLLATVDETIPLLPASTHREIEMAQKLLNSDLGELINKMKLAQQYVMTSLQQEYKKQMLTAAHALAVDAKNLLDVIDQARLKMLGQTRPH
# Sequence of PRKCE (Q02156 whole entry): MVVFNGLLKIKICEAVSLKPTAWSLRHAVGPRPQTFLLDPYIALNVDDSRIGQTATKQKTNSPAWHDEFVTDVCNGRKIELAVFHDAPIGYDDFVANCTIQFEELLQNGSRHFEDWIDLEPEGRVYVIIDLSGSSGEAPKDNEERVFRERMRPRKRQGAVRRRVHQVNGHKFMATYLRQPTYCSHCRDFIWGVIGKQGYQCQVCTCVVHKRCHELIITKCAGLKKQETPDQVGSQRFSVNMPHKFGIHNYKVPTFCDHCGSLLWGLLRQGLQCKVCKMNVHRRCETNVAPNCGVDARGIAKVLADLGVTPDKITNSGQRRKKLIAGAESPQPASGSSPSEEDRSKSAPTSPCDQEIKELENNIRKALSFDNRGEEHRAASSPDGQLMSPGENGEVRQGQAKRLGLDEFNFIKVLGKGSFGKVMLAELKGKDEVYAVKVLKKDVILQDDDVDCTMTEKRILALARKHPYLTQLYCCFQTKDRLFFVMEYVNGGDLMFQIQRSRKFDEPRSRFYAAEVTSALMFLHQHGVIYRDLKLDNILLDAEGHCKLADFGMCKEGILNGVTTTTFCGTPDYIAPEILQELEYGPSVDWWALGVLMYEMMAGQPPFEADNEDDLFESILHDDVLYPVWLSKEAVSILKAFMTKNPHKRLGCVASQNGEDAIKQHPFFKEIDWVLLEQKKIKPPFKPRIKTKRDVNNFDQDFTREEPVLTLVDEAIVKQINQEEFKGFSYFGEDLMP
# Sequence of SRPK3 (Q9UPE1 whole entry): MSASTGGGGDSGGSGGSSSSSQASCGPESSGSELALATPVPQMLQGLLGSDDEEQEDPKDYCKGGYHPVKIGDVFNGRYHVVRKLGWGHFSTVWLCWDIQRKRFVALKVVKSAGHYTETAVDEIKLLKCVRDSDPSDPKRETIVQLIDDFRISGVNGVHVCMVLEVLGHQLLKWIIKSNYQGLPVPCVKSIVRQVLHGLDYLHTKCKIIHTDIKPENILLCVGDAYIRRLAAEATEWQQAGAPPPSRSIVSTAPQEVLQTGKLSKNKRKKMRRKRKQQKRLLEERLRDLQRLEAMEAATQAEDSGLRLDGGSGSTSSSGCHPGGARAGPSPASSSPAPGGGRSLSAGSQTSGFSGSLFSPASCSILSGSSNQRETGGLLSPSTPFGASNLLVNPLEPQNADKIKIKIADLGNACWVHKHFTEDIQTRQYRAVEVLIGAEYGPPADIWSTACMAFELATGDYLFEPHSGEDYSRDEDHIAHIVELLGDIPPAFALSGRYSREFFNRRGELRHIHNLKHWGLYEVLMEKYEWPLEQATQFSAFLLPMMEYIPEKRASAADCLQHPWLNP
# Sequence of IKK-alpha (O15111 whole entry): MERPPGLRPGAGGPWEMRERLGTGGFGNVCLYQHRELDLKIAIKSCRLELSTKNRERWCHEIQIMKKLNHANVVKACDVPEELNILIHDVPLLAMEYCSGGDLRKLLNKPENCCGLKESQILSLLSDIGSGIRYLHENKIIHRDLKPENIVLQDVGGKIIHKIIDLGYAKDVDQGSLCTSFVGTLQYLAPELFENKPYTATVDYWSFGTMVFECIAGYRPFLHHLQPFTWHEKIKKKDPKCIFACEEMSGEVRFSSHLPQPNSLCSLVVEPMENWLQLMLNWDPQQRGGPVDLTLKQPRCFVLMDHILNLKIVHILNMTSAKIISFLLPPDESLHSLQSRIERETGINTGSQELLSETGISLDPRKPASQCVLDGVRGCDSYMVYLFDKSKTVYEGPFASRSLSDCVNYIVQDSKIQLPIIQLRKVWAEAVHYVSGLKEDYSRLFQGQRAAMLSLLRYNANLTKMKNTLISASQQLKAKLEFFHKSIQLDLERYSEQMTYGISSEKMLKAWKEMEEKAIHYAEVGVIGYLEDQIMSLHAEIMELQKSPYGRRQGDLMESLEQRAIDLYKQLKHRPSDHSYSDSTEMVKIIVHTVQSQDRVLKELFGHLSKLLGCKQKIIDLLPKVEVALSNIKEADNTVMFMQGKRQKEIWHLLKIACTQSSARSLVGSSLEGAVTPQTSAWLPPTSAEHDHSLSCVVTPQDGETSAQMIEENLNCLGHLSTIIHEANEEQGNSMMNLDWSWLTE
# Sequence of GSK3B (P49841 whole entry): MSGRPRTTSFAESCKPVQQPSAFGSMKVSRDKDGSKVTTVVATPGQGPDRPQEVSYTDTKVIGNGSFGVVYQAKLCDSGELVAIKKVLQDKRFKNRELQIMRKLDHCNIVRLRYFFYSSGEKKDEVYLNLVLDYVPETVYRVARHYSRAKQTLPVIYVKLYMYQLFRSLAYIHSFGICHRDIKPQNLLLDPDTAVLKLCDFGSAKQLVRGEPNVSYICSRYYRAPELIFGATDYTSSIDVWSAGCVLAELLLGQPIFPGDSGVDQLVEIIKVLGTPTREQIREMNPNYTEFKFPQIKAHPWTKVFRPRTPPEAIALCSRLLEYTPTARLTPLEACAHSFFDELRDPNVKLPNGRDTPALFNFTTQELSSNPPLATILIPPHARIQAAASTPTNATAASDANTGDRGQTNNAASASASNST
# Sequence of DYRK1B (Q9Y463 whole entry): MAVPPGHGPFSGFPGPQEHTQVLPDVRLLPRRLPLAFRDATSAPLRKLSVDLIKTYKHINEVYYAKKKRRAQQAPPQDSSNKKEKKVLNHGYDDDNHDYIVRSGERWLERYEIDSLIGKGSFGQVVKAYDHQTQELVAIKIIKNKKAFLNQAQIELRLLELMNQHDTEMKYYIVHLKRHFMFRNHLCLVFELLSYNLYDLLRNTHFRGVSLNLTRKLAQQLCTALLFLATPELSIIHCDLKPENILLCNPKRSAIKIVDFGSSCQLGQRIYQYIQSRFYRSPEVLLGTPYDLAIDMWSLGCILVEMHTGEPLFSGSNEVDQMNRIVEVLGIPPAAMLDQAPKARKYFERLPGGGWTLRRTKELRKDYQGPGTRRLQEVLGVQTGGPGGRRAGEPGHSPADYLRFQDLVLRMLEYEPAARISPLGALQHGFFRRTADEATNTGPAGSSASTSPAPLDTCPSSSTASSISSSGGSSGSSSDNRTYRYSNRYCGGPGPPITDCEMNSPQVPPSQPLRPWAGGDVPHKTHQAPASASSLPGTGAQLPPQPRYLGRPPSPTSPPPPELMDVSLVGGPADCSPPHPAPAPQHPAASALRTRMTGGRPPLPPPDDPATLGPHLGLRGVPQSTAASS
# Sequence of YANK3 (Q86UX6 whole entry): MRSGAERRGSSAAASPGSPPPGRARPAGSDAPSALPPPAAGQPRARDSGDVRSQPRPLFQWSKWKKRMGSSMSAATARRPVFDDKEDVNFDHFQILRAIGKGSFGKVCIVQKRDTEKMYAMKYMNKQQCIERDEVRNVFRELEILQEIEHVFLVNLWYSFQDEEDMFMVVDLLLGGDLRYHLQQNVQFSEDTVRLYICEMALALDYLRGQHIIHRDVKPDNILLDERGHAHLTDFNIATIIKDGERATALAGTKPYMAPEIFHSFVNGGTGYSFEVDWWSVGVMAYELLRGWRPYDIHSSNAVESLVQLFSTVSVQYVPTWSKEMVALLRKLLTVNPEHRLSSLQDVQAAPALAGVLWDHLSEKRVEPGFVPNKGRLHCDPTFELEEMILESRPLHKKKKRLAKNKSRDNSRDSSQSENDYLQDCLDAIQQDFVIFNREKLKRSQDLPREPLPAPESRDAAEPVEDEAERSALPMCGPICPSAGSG
compound,measurement,setting,value
"O=C(O)C1CCC2(CC1)CC(Nc1ncnc3[nH]c4c(F)cccc4c13)C2 (centres unmarked) [Compound 74, OC(=O)C1CCC2(CC(C2)NC=3N=CN=C4NC=5C(F)=CC=CC5C34)CC1]",remaining activity at 10 µM,FGFR2,71%
same,remaining activity at 10 µM,ROCK2,59%
same,remaining activity at 10 µM,AKT1,100%
same,remaining activity at 10 µM,EGFR(L858R),84%
same,remaining activity at 10 µM,CHEK1,100%
same,remaining activity at 10 µM,ADCK3,85%
same,remaining activity at 10 µM,CDK7,62%
same,remaining activity at 10 µM,ACVR1B,55%
same,remaining activity at 10 µM,PRKCE,57%
same,remaining activity at 10 µM,SRPK3,67%
same,remaining activity at 10 µM,ZAP70,75%
same,remaining activity at 10 µM,YANK3,62%
same,remaining activity at 10 µM,BRAF,86%
same,remaining activity at 10 µM,JNK1,35%
same,remaining activity at 10 µM,PDPK1,64%
same,remaining activity at 10 µM,ULK2,54%
same,remaining activity at 10 µM,[1],57%
same,remaining activity at 10 µM,GSK3B,82%
same,remaining activity at 10 µM,PIK3CG,3.5%
same,remaining activity at 10 µM,DYRK1B,74%
same,remaining activity at 10 µM,PIM1,72%
same,remaining activity at 10 µM,TRKA,11%
same,remaining activity at 10 µM,IKK-alpha,42%
same,remaining activity at 10 µM,AKT2,74%
same,remaining activity at 10 µM,CDK11,46%
same,remaining activity at 10 µM,SRC,88%
same,remaining activity at 10 µM,PIK3CA,64%
same,remaining activity at 10 µM,EGFR,96%
same,remaining activity at 10 µM,CDK2,96%
same,remaining activity at 10 µM,BTK,67%
same,remaining activity at 10 µM,FAK,97%
same,remaining activity at 10 µM,p38-alpha,87%
"O=C([O-])C1CCC2(CC1)CC(Nc1ncnc3[nH]c4c(F)cccc4c13)C2.[Na+] (centres unmarked) [Compound 77, [Na+].[O-]C(=O)C1CCC2(CC(C2)NC=3N=CN=C4NC=5C(F)=CC=CC5C34)CC1]",effect on carrageenan-induced paw edema,"mice; 30 mg/kg i.p., one day after carrageenan",significantly reduced
same,"Paw thickness %BL CARR, Group Average",mice; [2],92.2% and 96.7%
same,"Paw thickness %Baseline, Group Average",mice; [2],118.7% and 118.1%
same,"Paw thickness AVG 30, Group Average",mice; [2],2.0
same,Paw thickness %Baseline,mice; [3],122.7% and 124.6% and 120.5% and 111.5% and 114.1% and 116.5% and 122.2% and 107.4% and 119.7% and 124.9%
same,Paw thickness AVG 30,mice; [3],2.0 and 2.2 and 2.1 and 1.9 and 1.8
same,Paw Thickness,mice; [3],1.9 and 2.04 and 2.2 and 2.1 and 2.14 and 2.06 and 1.98 and 2.08 and 1.95 and 1.77 and 1.88 and 2 and 2.13 and 2.02
same,Paw thickness %BL CARR,mice; [3],89.5% and 101.4% and 91.7% and 92.1% and 86.4% and 102.3% and 101.6% and 84.9% and 96.7% and 98.1%
same,"Paw thickness %BL CARR, Group Average",mice; [4],91.8% and 95.5%
same,"Paw thickness %Baseline, Group Average",mice; [4],118.2% and 116.8%
same,"Paw thickness AVG 60, Group Average",mice; [4],2.0
same,Paw thickness %Baseline,mice; [5],124.6% and 118.8% and 118.2% and 112.4% and 117.1% and 109.8% and 115.0% and 114.7% and 118.3% and 126.1%
same,Paw thickness AVG 60,mice; [5],2.0 and 2.1 and 1.9
same,Paw Thickness,mice; [5],2.1 and 1.9 and 2 and 2.02 and 1.97 and 1.98 and 2.05 and 2.09 and 2.2
same,Paw thickness %BL CARR,mice; [5],90.9% and 96.7% and 89.9% and 92.8% and 88.6% and 96.4% and 95.6% and 90.7% and 99.1%
same,"Paw thickness %BL CARR, Group Average",mice; [6],89.1% and 94.8%
same,"Paw thickness %Baseline, Group Average",mice; [6],114.9% and 115.9%
same,"Paw thickness AVG 120, Group Average",mice; [6],2.0
same,Paw thickness %Baseline,mice; [7],126.2% and 111.6% and 112.4% and 111.0% and 113.2% and 111.3% and 115.8% and 115.9% and 114.2% and 122.2%
same,Paw thickness AVG 120,mice; [7],2.0 and 1.9 and 2.1
same,Paw Thickness,mice; [7],2 and 2.05 and 1.9 and 1.95 and 2.04 and 2.1 and 2.07 and 1.91 and 2.03 and 1.94 and 1.97
same,Paw thickness %BL CARR,mice; [7],92.0% and 90.8% and 85.5% and 91.6% and 85.7% and 97.7% and 96.3% and 92.3% and 96.0%
same,"Paw thickness %BL CARR, Group Average",mice; [8],89.9% and 92.7%
same,"Paw thickness %Baseline, Group Average",mice; [8],115.8% and 113.3%
same,"Paw thickness AVG 180, Group Average",mice; [8],2.0
same,Paw thickness %Baseline,mice; [9],125.5% and 114.5% and 111.0% and 112.4% and 115.6% and 112.7% and 106.9% and 111.8% and 115.9% and 118.9%
same,Paw thickness AVG 180,mice; [9],2.0 and 1.9
same,Paw Thickness,mice; [9],2.03 and 2 and 1.95 and 1.9 and 2.09 and 2.02 and 1.91 and 1.99 and 1.96
same,Paw thickness %BL CARR,mice; [9],91.6% and 93.2% and 84.4% and 92.8% and 87.5% and 99.0% and 88.9% and 88.4% and 93.7% and 93.4%
same,"Paw thickness %BL CARR, Group Average",mice; [10],85.7% and 94.0%
same,"Paw thickness %Baseline, Group Average",mice; [10],110.4% and 114.8%
same,"Paw thickness AVG 24h, Group Average",mice; [10],1.9 and 2.0
same,Paw thickness %Baseline,mice; [11],118.4% and 111.0% and 109.2% and 105.9% and 107.4% and 115.6% and 114.7% and 114.5% and 120.1%
same,Paw thickness AVG 24h,mice; [11],1.9 and 1.8 and 2.0
same,Paw Thickness,mice; [11],1.9 (2×) and 1.83 and 2 and 1.92 and 1.87 and 1.84 and 1.8 and 1.85 and 1.93 and 1.95 (2×)
same,Paw thickness %BL CARR,mice; [11],86.4% and 90.3% and 83.1% and 87.4% and 81.3% and 101.5% and 90.8% and 90.7% and 92.5% and 94.3%

# Reference: PMC10700596 (Nature Communications, 2023)
